Test results taken from patent US11629171B2, “Beta-hairpin peptidomimetics” (POLYPHOR AG, priority 2017, dated 2023).
≈ marks a conversion by molar mass, not a printed value. Where a SMILES comes first, the peptide text is derived from it. Bridges are numbered along the chain shown (N, C = ends). Roman numbers before positions name the chains, in order. [ ]: non-standard residue; d: D form. The star is where a group is joined. Thr(ol) = C[C@@H](O)[C@H](N)CO; Tle = CC(C)(C)[C@H](N)C(=O)O; Hiv = CC(C)[C@H](O)C(=O)O; dDab = NCC[C@@H](N)C(=O)O; hSer = N[C@@H](CCO)C(=O)O; Dab = NCC[C@H](N)C(=O)O; NHCH2CH2OH = OCCN*

Tests used:
Format in all cases: cell-based
[1] = tested on: Acinetobacter baumannii 872842; details: 872842
Outline: (§1)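 MIC in μg/mL, read as no visible growth after 18-20 hours at 35° C. Peptides were serially diluted two-fold in MH-II broth plus P-80 (0.002% final, v/v) and inoculated at about 10^6 CFU/mL following the CLSI broth microdilution standard.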

[2] = tested on: Acinetobacter baumannii DSM 30008; details: DSM 30008
Outline: as §1

[3] = tested on: Enterobacter cloacae 848840; details: 848840
Outline: as §1

[4] = tested on: Escherichia coli 926415; details: 926415
Outline: as §1

[5] = tested on: Escherichia coli ATCC 25922; details: ATCC 25922
Outline: as §1

[6] = tested on: Klebsiella pneumoniae 968733; details: 968733
Outline: as §1

[7] = tested on: Klebsiella pneumoniae SSI #3010; details: SSI #3010
Outline: as §1

[8] = tested on: Pseudomonas aeruginosa ATCC 27853; details: ATCC 27853
Outline: as §1

[9] = tested on: human red blood cells (hRBC); experiment: Hemolysis; details: red cells of human, 1 h, 200
Outline: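 Hemoglobin release from PBS-washed hRBC at 20% (v/v), incubated 1 h at 37° C with peptides at 200 μg/mL, is measured at 540 nm. Values are blank corrected and given as a fraction of Triton X-100 lysis × 100%.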

MIC [1] | MIC [2] | MIC [3] | MIC [4] | MIC [5] | MIC [6] | MIC [7] | MIC [8] | SMILES | Hemolysis at 200 μg/mL [9]
0.5 µg/mL (≈ 0.206 µM) | 0.0625 µg/mL (≈ 0.0258 µM) | 4 µg/mL (≈ 1.65 µM) | 0.5 µg/mL (≈ 0.206 µM) | 0.125 µg/mL (≈ 0.0515 µM) | 1 µg/mL (≈ 0.412 µM) | 0.125 µg/mL (≈ 0.0515 µM) | 0.125 µg/mL (≈ 0.0515 µM) | CC(=O)N[C@H](C(=O)N[C@H]1CSSC[C@@H](C(=O)N[C@@H](CO)C(N)=O)NC(=O)[C@H](Cc2ccc(O)cc2)NC(=O)[C@H](CO)NC(=O)[C@H](Cc2c[nH]c3ccccc23)NC(=O)[C@H](CCO)NC(=O)[C@@H](CCN)NC(=O)[C@H](CCC(=O)N[C@@H](CCN)C(=O)N[C@H](C(=O)N[C@@H](CCN)C(=O)N[C@H]2CCNC(=O)[C@H]([C@@H](C)O)NC(=O)[C@H](CCN)NC(=O)[C@H](CCN)NC(=O)[C@H](CC(C)C)NC(=O)[C@@H](CC(C)C)NC(=O)[C@H](CCN)NC2=O)[C@@H](C)O)NC(=O)[C@H](CCN)NC(=O)[C@H](C(C)C)NC1=O)C(C)C [Ex. 64] (I: Ac-VCV[Dab]E[dDab][hSer]WSYCS-NH2 / II: [Dab]T[Dab][Dab][Dab][dL]L[Dab][Dab]T; disulfide I:2-I:11; amide I:5-II:N; lactam II:4-II:C) | <1%
0.0625 µg/mL (≈ 0.0254 µM) | 0.0625 µg/mL (≈ 0.0254 µM) | 0.125 µg/mL (≈ 0.0509 µM) | 0.0625 µg/mL (≈ 0.0254 µM) | 0.0625 µg/mL (≈ 0.0254 µM) | 0.125 µg/mL (≈ 0.0509 µM) | 0.0625 µg/mL (≈ 0.0254 µM) | 0.125 µg/mL (≈ 0.0509 µM) | CC(C)C[C@@H]1NC(=O)[C@@H](CC(C)C)NC(=O)[C@H](CCN)NC(=O)[C@@H](NC(=O)[C@H](CCN)NC(=O)[C@@H](NC(=O)[C@H](CCN)NC(=O)CC[C@@H]2NC(=O)[C@H](CCN)NC(=O)[C@H](C(C)C)NC(=O)[C@@H](NC(=O)[C@@H](O)C(C)C)CSSC[C@@H](C(=O)N[C@@H](Cc3ccc(O)cc3)C(=O)NCCO)NC(=O)[C@H](C(C)(C)C)NC(=O)[C@H](CO)NC(=O)[C@H](Cc3c[nH]c4ccccc34)NC(=O)[C@H](CCO)NC(=O)[C@@H](CCN)NC2=O)[C@@H](C)O)CCNC(=O)[C@H]([C@@H](C)O)NC(=O)[C@H](CCN)NC(=O)[C@H](CCN)NC1=O [Ex. 69] (I: H-[Hiv]CV[Dab]E[dDab][hSer]WS[Tle]CY-NHCH2CH2OH / II: [Dab]T[Dab][Dab][Dab][dL]L[Dab][Dab]T; disulfide I:2-I:11; amide I:5-II:N; lactam II:4-II:C) | 2%
0.25 µg/mL (≈ 0.102 µM) | 0.0625 µg/mL (≈ 0.0254 µM) | 0.125 µg/mL (≈ 0.0509 µM) | 0.5 µg/mL (≈ 0.203 µM) | 0.125 µg/mL (≈ 0.0509 µM) | 0.25 µg/mL (≈ 0.102 µM) | 0.125 µg/mL (≈ 0.0509 µM) | 0.125 µg/mL (≈ 0.0509 µM) | CC(C)C[C@@H]1NC(=O)[C@@H](CC(C)C)NC(=O)[C@H](CCN)NC(=O)[C@@H](NC(=O)[C@H](CCN)NC(=O)[C@@H](NC(=O)[C@H](CCN)NC(=O)CC[C@@H]2NC(=O)[C@H](CCN)NC(=O)[C@H]([C@@H](C)O)NC(=O)[C@@H](NC(=O)[C@@H](O)C(C)C)CSSC[C@@H](C(=O)N[C@@H](Cc3ccc(O)cc3)C(=O)NCCO)NC(=O)[C@H](C(C)(C)C)NC(=O)[C@H](CO)NC(=O)[C@H](Cc3c[nH]c4ccccc34)NC(=O)[C@H](CCO)NC(=O)[C@@H](CCN)NC2=O)[C@@H](C)O)CCNC(=O)[C@H]([C@@H](C)O)NC(=O)[C@H](CCN)NC(=O)[C@H](CCN)NC1=O [Ex. 70] (I: H-[Hiv]CT[Dab]E[dDab][hSer]WS[Tle]CY-NHCH2CH2OH / II: [Dab]T[Dab][Dab][Dab][dL]L[Dab][Dab]T; disulfide I:2-I:11; amide I:5-II:N; lactam II:4-II:C) | <1%
0.125 µg/mL (≈ 0.0503 µM) | 0.0625 µg/mL (≈ 0.0252 µM) | 0.25 µg/mL (≈ 0.101 µM) | 0.25 µg/mL (≈ 0.101 µM) | 0.0625 µg/mL (≈ 0.0252 µM) | 0.25 µg/mL (≈ 0.101 µM) | 0.125 µg/mL (≈ 0.0503 µM) | 0.125 µg/mL (≈ 0.0503 µM) | CC(=O)N[C@H](C(=O)N[C@H]1CSSC[C@@H](C(=O)N[C@@H](Cc2ccc(O)cc2)C(=O)NCCO)NC(=O)[C@H](C(C)(C)C)NC(=O)[C@H](CO)NC(=O)[C@H](Cc2c[nH]c3ccccc23)NC(=O)[C@H](CCO)NC(=O)[C@@H](CCN)NC(=O)[C@H](CCC(=O)N[C@@H](CCN)C(=O)N[C@H](C(=O)N[C@@H](CCN)C(=O)N[C@H]2CCNC(=O)[C@H]([C@@H](C)O)NC(=O)[C@H](CCN)NC(=O)[C@H](CCN)NC(=O)[C@H](CC(C)C)NC(=O)[C@@H](CC(C)C)NC(=O)[C@H](CCN)NC2=O)[C@@H](C)O)NC(=O)[C@H](CCN)NC(=O)[C@H](CO)NC1=O)C(C)C [Ex. 71] (I: Ac-VCS[Dab]E[dDab][hSer]WS[Tle]CY-NHCH2CH2OH / II: [Dab]T[Dab][Dab][Dab][dL]L[Dab][Dab]T; disulfide I:2-I:11; amide I:5-II:N; lactam II:4-II:C) | 1%
0.0625 µg/mL (≈ 0.0265 µM) | 0.0625 µg/mL (≈ 0.0265 µM) | 0.25 µg/mL (≈ 0.106 µM) | 0.125 µg/mL (≈ 0.053 µM) | 0.0625 µg/mL (≈ 0.0265 µM) | 0.125 µg/mL (≈ 0.053 µM) | 0.125 µg/mL (≈ 0.053 µM) | 0.125 µg/mL (≈ 0.053 µM) | CC(C)C[C@@H]1NC(=O)[C@@H](CC(C)C)NC(=O)[C@H](CCN)NC(=O)[C@@H](NC(=O)[C@H](CCN)NC(=O)[C@@H](NC(=O)[C@H](CCN)NC(=O)CC[C@@H]2NC(=O)[C@H](CCN)NC(=O)[C@H](Cc3ccc(O)cc3)NC(=O)[C@@H](NC(=O)[C@@H](O)C(C)C)CSSC[C@@H](C(=O)NCCO)NC(=O)[C@H](C(C)(C)C)NC(=O)[C@H](CO)NC(=O)[C@H](Cc3c[nH]c4ccccc34)NC(=O)[C@H](CCO)NC(=O)[C@@H](CCN)NC2=O)[C@@H](C)O)CCNC(=O)[C@H]([C@@H](C)O)NC(=O)[C@H](CCN)NC(=O)[C@H](CCN)NC1=O [Ex. 72] (I: H-[Hiv]CY[Dab]E[dDab][hSer]WS[Tle]C-NHCH2CH2OH / II: [Dab]T[Dab][Dab][Dab][dL]L[Dab][Dab]T; disulfide I:2-I:11; amide I:5-II:N; lactam II:4-II:C) | <1%
0.0625 µg/mL (≈ 0.026 µM) | 0.0625 µg/mL (≈ 0.026 µM) | 0.125 µg/mL (≈ 0.0521 µM) | 0.25 µg/mL (≈ 0.104 µM) | 0.0625 µg/mL (≈ 0.026 µM) | 0.0625 µg/mL (≈ 0.026 µM) | 0.0625 µg/mL (≈ 0.026 µM) | 0.25 µg/mL (≈ 0.104 µM) | CC(C)C[C@@H]1NC(=O)[C@@H](CC(C)C)NC(=O)[C@H](CCN)NC(=O)[C@@H](NC(=O)[C@H](CCN)NC(=O)[C@@H](NC(=O)[C@H](CCN)NC(=O)CC[C@@H]2NC(=O)[C@H](CCN)NC(=O)[C@H](Cc3ccc(O)cc3)NC(=O)[C@@H](NC(=O)[C@@H](O)C(C)C)CSSC[C@@H](C(=O)N[C@H](CO)[C@@H](C)O)NC(=O)[C@H](C(C)(C)C)NC(=O)[C@H](CO)NC(=O)[C@H](Cc3c[nH]c4ccccc34)NC(=O)[C@H](CCO)NC(=O)[C@@H](CCN)NC2=O)[C@@H](C)O)CCNC(=O)[C@H]([C@@H](C)O)NC(=O)[C@H](CCN)NC(=O)[C@H](CCN)NC1=O [Ex. 74] (I: H-[Hiv]CY[Dab]E[dDab][hSer]WS[Tle]C[Thr(ol)] / II: [Dab]T[Dab][Dab][Dab][dL]L[Dab][Dab]T; disulfide I:2-I:11; amide I:5-II:N; lactam II:4-II:C) | <1%
0.0625 µg/mL (≈ 0.0254 µM) | 0.0625 µg/mL (≈ 0.0254 µM) | 0.125 µg/mL (≈ 0.0509 µM) | 0.125 µg/mL (≈ 0.0509 µM) | 0.0625 µg/mL (≈ 0.0254 µM) | 0.125 µg/mL (≈ 0.0509 µM) | 0.125 µg/mL (≈ 0.0509 µM) | 0.125 µg/mL (≈ 0.0509 µM) | CC(C)C[C@@H]1NC(=O)[C@@H](CC(C)C)NC(=O)[C@H](CCN)NC(=O)[C@@H](NC(=O)[C@H](CCN)NC(=O)[C@@H](NC(=O)[C@H](CCN)NC(=O)CC[C@@H]2NC(=O)[C@H](CCN)NC(=O)[C@H](Cc3ccc(O)cc3)NC(=O)[C@@H](NC(=O)[C@@H](O)C(C)C)CSSC[C@@H](C(=O)N[C@H](CO)[C@@H](C)O)NC(=O)[C@H](C(C)(C)C)NC(=O)[C@H](CO)NC(=O)[C@H](Cc3c[nH]c4ccccc34)NC(=O)[C@H](CCO)NC(=O)[C@@H](CCCNC(=N)N)NC2=O)[C@@H](C)O)CCNC(=O)[C@H]([C@@H](C)O)NC(=O)[C@H](CCN)NC(=O)[C@H](CCN)NC1=O [Ex. 75] (I: H-[Hiv]CY[Dab]E[dR][hSer]WS[Tle]C[Thr(ol)] / II: [Dab]T[Dab][Dab][Dab][dL]L[Dab][Dab]T; disulfide I:2-I:11; amide I:5-II:N; lactam II:4-II:C) | <1%
